Data reported in patent publication US10561658B2, “Thieno- and pyrrolopyrimidine analogues as anticancer agents and methods of use thereof” (UNIVERSITY OF MARYLAND, BALTIMORE COUNTY, priority 2015, dated 2020).
≈ marks a conversion by molar mass, not a printed value. Where two headings read alike, the source gives them in different places.

Assays:
Cryptococcus neoformans = test: Antifungal growth inhibition and MIC95, C. neoformans strains; assay type: cell-based
Protocol: (§1) Evaluation of antimicrobial activity in vitro. Compounds were tested against the following panel of bacteria and fungi purchased from the American Type Culture Collection (ATCC). Briefly, bacteria were grown to mid-log phase, diluted with fresh medium to an optical density at 600 nm (OD600) of 0.030-0.060 and then diluted again 1:10. This suspension (195 μL) was added to wells in a 96 well microtiter plate (Sarstedt) and 5 μL of compound dissolved in DMSO was added to give a final concentration of 100-0.1 μM at 2.5% DMSO by volume. A DMSO negative control and standard antibiotic positive controls were included in each plate. All compounds were tested in triplicate for each concentration. Plates were sealed with parafilm, placed in a Ziploc bag to prevent evaporation, and incubated at 30° C. (fungi) or 37° C. (bacteria) for 16-20 hours (48 hours for C. neoformans). The OD600 values for each well were determined with a plate reader (Biotek, EL800) and the data were standardized to the DMSO control wells after subtracting the background from blank medium. Initial single concentrations were tested at 100 μM and active compounds were further tested with at least nine concentrations for a full dose response. Dose response curves were generated using GraphPad Prism 5 software and used to determine the MIC95 concentrations (minimal concentration that inhibits 95% of growth). Compounds 1, 2, 5 and 19 were screened for growth inhibition activity against a panel of bacteria and fungi at a concentration of 100 as shown in Table 2. Compound 5 was included to test the importance of the C4-Cl substituent for activity across a broader range of biological systems.
(§2) Compounds 1 and 2 were further tested against the susceptible fungal strains to determine the MIC95 values.

[1] = tested on: NCI-60 human tumor cell lines; test: NCI60 human tumor cell line screen; assay type: cell-based; settings: NCI60, FIG. 4
Protocol: Lead compounds 1, 2 and 19 were evaluated for anti-cancer activity at nM to uM concentrations in cellular screens.
The lead halogenated pyrrolopyrimidines and thienopyrimidines of the present invention were tested in the human cell line screen which is composed of 60 different human tumor cell lines (NCI-60) representing leukemia, melanoma, lung cancer, colon cancer, brain cancer, ovary cancer, breast cancer, prostate cancer and kidney cancer. Testing specifics can be found at the National Cancer Institute at http://dtp.nci.nih.gov/branches/btb/ivelsp.html. Compounds 1, 2 and 19 were testing initially at a single dose (10^−5M) in the full cell panel. The results of the one-dose are reported as a mean graph of the percent of the growth of the treated cells. Both growth inhibition (values between 0 and 100) and lethality (values less than 0) are detectable. To evaluate the test results, a value of 100 means no growth inhibition. A value of 40 would mean 60% growth inhibition. A value of zero means no net growth over the course of the experiment. A value of −40 means 40% lethality and a value of −100 means all the cells are dead.

L1210 leukemia cell line = test: Apoptosis analysis (annexin V staining), L1210; assay type: cell-based, mouse; settings: for cells undergoing apoptosis (annexin V): L1210, 1 μM, 48 h
Protocol: FIGS. 5 A and B contains apoptosis analysis (annexin V staining) in the L1210 leukemia cell line relating to compounds 1 (ii), 2 (iii) and 19 (iv) relative to a control (i). After incubation with 1 μM compound (1) for 48 h, 60% of the cells were observed undergoing apoptotic cell death, with the vast majority of these in early apoptosis (FIG. 5A (ii)).
Many antineoplastic compounds arrest cell proliferation by activating specific checkpoints that block progression through the cell cycle. To test whether compounds 1 or 2 inhibited cell proliferation by this mechanism, their effects on L1210 cell cycle distributions were monitored using propidium iodide staining and flow cytometry (FIG. 7). Cell cycle and apoptosis studies were conducted on L1210, a mouse lymphocytic leukemia cell line obtained from the American Type Culture Collection and grown in Dulbecco's Modified Eagle's Medium (DMEM) plus 10% fetal bovine serum (FBS). 2×10^6 cells were seeded in 100 mm dishes and treated with vehicle alone or compounds 1 or 2 at the IC50 values determined by cell viability assays or an equivalent volume of DMSO. At 24 and 48 h following treatment the cells were collected, fixed, and stained with propidium iodide (Sigma Aldrich) immediately before analysis by flow cytometry. Vehicle-treated cells were largely confined to G1 and S phases, with very small (<5%) subpopulations in the G2/M phase or showing sub-(<G1) or super-genomic (>G2) DNA content.

[2] = tested on: Candida albicans ATCC 10231; test: Antifungal growth inhibition and MIC95, C. albicans; assay type: cell-based; settings: ATCC10231; for inhibition at 100 µM: Candida albicans ATCC 10231, 100 μM; for MIC: Candida albicans, C. albicans ATCC 10231, minimum concentration for inhibition by 95%
Protocol: as §1, §2

[3] = tested on: Escherichia coli ATCC 25922; test: Antimicrobial growth inhibition, E. coli; assay type: cell-based; settings: ATCC25922; Escherichia coli ATCC 25922, 100 μM
Protocol: as §1

[4] = tested on: murine leukemia L1210 cells; test: Cell proliferation assay, L1210; assay type: cell-based; settings: Mus musculus
Protocol: Cell proliferation assays for several of the compounds were performed on L1210, a mouse lymphocytic leukemia cell line; CCRF-CEM [39] an acute lymphoblastic leukemia cell line; and HeLa, a human cancer cell line derived from a human cervical adenocarcinoma. Murine Leukemia L1210, human lymphocytic CEM and human cervix carcinoma HeLa cells were obtained from the American Type Culture Collection (ATCC) (Rockville, Md.). All assays were performed in 96-well microtiter plates. To each well were added (5-7.5)×10^4 tumor cells and a given amount of the test compound. The cells were allowed to proliferate for 48 h (murine leukemia L1210 cells) or 72 h (human lymphocytic CEM and human cervix carcinoma HeLa cells) at 37° C. in a humidified CO2-controlled atmosphere. At the end of the incubation period, the cells were counted in a Coulter counter. The IC50 (50% inhibitory concentration) was defined as the concentration of the compound that inhibited cell proliferation by 50%. […] Presence of C7 iodine on the 2,4-dichloro pyrrolo[3,2-d] (compound 20) increases the anticancer activity by a factor of 5 when compared to compound 19. […] This alludes to a) importance of C7-I towards activity against cancer cell lines for the 2,4-O-benzylated analogues (15 and 16).

[5] = ATCC66031, Cryptococcus neoformans ATCC 66031, 100 μM
[6] = C. neoformans B4546, minimum concentration for inhibition by 95%
[7] = C. neoformans JEC20, minimum concentration for inhibition by 95%
[8] = C. neoformans VANC-R265, 100 μM
[9] = FIG. 7 concentration, said in b126 to be the IC50 from cell viability assays, read-out: IC50 concentration used for L1210 cell cycle analysis

Row | SMILES | inhibition at 100 µM (Cryptococcus neoformans; [5]) | inhibition at 100 µM (Cryptococcus neoformans; C. neoformans B4546, 100 μM) | MIC (Cryptococcus neoformans; [6]) | inhibition at 100 µM (Cryptococcus neoformans; C. neoformans JEC20, 100 μM) | MIC (Cryptococcus neoformans; [7]) | inhibition at 100 µM (Cryptococcus neoformans; [8]) | activity against non-small cell lung and CNS cancers [1] | anti-cancer activity against melanoma, breast, colon and renal cancers [1] | cells undergoing apoptosis (annexin V) (L1210 leukemia cell line) | inhibition at 100 µM [2] | MIC [2] | inhibition at 100 µM [3] | IC50 [4, 9] | Annexin V positive cells (L1210 leukemia cell line; L1210, 5.4 μM) | cells consistent with late apoptosis (L1210 leukemia cell line; L1210, 5.4 μM) | IC50 ([4]; 48 h proliferation, Coulter counter, read-out: IC50 L1210)
1 | Clc1nc(Cl)c2sccc2n1 [Compound 1, 2,4-Dichlorothieno[3,2-d]pyrimidine] | 101% | 96% | 34.6 µM (≈ 7.1 µg/mL) | 100% | 16.6 µM (≈ 3.4 µg/mL) | 93% | little or no activity | selective activity | 60% | 99% | 23.4 µM (≈ 4.8 µg/mL) | < 43% | 0.32 µM |  |  | 
2 | Clc1nc(Cl)c2scc(Br)c2n1 [Compound 2, 7-Bromo-2,4-dichlorothieno[3,2-d]pyrimidine] | 55% | 82% | 7 µM (≈ 1.99 µg/mL) | 91% | 5.8 µM (≈ 1.65 µg/mL) | 67% | little or no activity | selective activity |  | 99% | 10.7 µM (≈ 3.04 µg/mL) | < 43% | 5.4 µM | 55% | 40% | 
3 | Clc1nc(Cl)c2[nH]ccc2n1 [Compound 19, 2,4-Dichloropyrrolo[3,2-d]pyrimidine] | < 43% | < 43% |  | < 43% |  | < 43% | little or no activity | selective activity | 85% | < 43% |  | < 43% |  |  |  | 6.8 ± 2.8 µM
